Test results taken from US4705777A, “Cationic oligopeptides having microbicidal activity” (priority 1985, dated 1987).

What was measured:
Serratia marcescens = assay: Antibacterial activity of rabbit granulocyte peptides (Table III), S. marcescens; format: cell-based; settings: 50 μg/ml, 20 min, 37° C., 10 mM sodium phosphate buffer pH 7.4
Procedure: (§1) The procedure parallels that reported in Lehrer et al., Infection and Immunity (1983) 42:10-14. […] The subculture was grown at 37° C. for 4 h with shaking to provide mid-logarithmic phase organisms that were washed twice with buffer by centrifugation (2000×g, 10 min), and then quantitated spectrophotometrically at 620 nm, with reference to previously established CFU/Optical Density relationships. Bacteria were suspended and experiments were performed in 10 mM sodium phosphate buffer, pH 7.4. In some experiments, buffers were supplemented with 0.14 M NaCl ("high" ionic strength). […] In some experiments, 10 mM phosphate buffer with a pH of 5.8 and conductivity of 1.36 mMHO was used. Peptide "stock solutions" were prepared at 500 μg/ml (microbiuret assay) in 0.01% acetic acid, and stored at -20° C. Typically, incubation mixtures contained 1×10^5 bacterial CFU and 5 μg of peptide in 100 μl of buffer. After incubation for 20 min at 37° C., 900 μl of the same buffer was added, and two additional serial tenfold dilutions were made with that buffer. Duplicate 100 μl aliquots from the three serial dilutions were spread over appropriate nutrient agar plates and incubated for 24-72 h to insure full colony development. Killing of microorganisms was expressed as the logarithm10 No /N, where No represented the initial colony count and N represented the colony count after incubation with peptide. There was no significant alteration in colony count when any of the test organisms were exposed to peptide-free buffer for 20 min.

Ps. aeruginosa = assay: Antibacterial action, % killing (Table II), Ps. aeruginosa; format: cell-based, Pseudomonas aeruginosa; settings: 50 μg/ml peptide, 10^7 bacterial cells/ml, 20 min, 37°
Procedure: (§2) To test antibacterial action of the polypeptides, the following protocol was employed. Various species at 10^7 bacterial cells/ml are incubated for 20 min at 37° with 50 μg/ml of the candidate peptide. Colony counts (viable organisms) are made at the outset of the incubation--beforeaddition of the candidate peptide--and after 20 min of incubation with the candidate peptide.

S. aureus 502A = assay: Antibacterial action, % killing (Table II), S. aureus 502A; format: cell-based, Staphylococcus aureus; settings: 50 μg/ml peptide, 10^7 bacterial cells/ml, 20 min, 37°
Procedure: as §2

[1] = tested on: Escherichia coli ATCC 29648; assay: Antibacterial activity of rabbit granulocyte peptides (Table III), E. coli; format: cell-based; settings: 50 μg/ml, 20 min, 37° C., 10 mM sodium phosphate buffer pH 7.4
Procedure: as §1

[2] = tested on: Staphylococcus aureus J.F.; assay: Antibacterial activity of rabbit granulocyte peptides (Table III), S. aureus J.F.; format: cell-based; settings: 50 μg/ml, 20 min, 37° C., 10 mM sodium phosphate buffer pH 7.4
Procedure: as §1

E. coli = assay: Antibacterial action, % killing (Table II), E. coli; format: cell-based, Escherichia coli; settings: 50 μg/ml peptide, 10^7 bacterial cells/ml, 20 min, 37°
Procedure: as §2

S. marscescens = assay: Antibacterial action, % killing (Table II), S. marscescens; format: cell-based, Serratia marscescens; settings: 50 μg/ml peptide, 10^7 bacterial cells/ml, 20 min, 37°
Procedure: as §2

[3] = tested on: Streptococcus agalactiae Type IIIU; assay: Antibacterial activity of rabbit granulocyte peptides (Table III), S. agalactiae Type IIIU; format: cell-based; settings: 50 μg/ml, 20 min, 37° C., 10 mM sodium phosphate buffer pH 7.4
Procedure: as §1

[4] = tested on: Klebsiella pneumoniae ATCC 13883; assay: Antibacterial activity of rabbit granulocyte peptides (Table III), K. pneumoniae; format: cell-based; settings: 50 μg/ml, 20 min; for Bactericidal activity log10 No /N, Klebsiella pneumoniae ATCC 13883, pH 5.8: 10 mM phosphate buffer pH 5.8; for Bactericidal activity log10 No /N, Klebsiella pneumoniae ATCC 13883: 37° C., 10 mM sodium phosphate buffer pH 7.4; for Bactericidal activity log10 No /N, Klebsiella pneumoniae ATCC 13883, "High" ionic strength: buffer pH 7.4 supplemented with 0.14 M NaCl
Procedure: as §1

[5] = tested on: Bordetella bronchiseptica UCLA-342; assay: Antibacterial activity of rabbit granulocyte peptides (Table III), B. bronchiseptica; format: cell-based; settings: 50 μg/ml, 20 min, 37° C., 10 mM sodium phosphate buffer pH 7.4
Procedure: as §1

[6] = tested on: Streptococcus pneumoniae Type III; assay: Antibacterial activity of rabbit granulocyte peptides (Table III), S. pneumoniae; format: cell-based; settings: 50 μg/ml, 20 min, 37° C., 10 mM sodium phosphate buffer pH 7.4
Procedure: as §1

[7] = tested on: Streptococcus agalactiae Type-I-A; assay: Antibacterial activity of rabbit granulocyte peptides (Table III), S. agalactiae Type-I-A; format: cell-based; settings: 50 μg/ml, 20 min; for Bactericidal activity log10 No /N, Streptococcus agalactiae Type 1A, pH 5.8: 10 mM phosphate buffer pH 5.8; for Bactericidal activity log10 No /N, Streptococcus agalactiae Type-I-A: 37° C., 10 mM sodium phosphate buffer pH 7.4; for Bactericidal activity log10 No /N, Streptococcus agalactiae Type 1A, "High" ionic strength: buffer pH 7.4 supplemented with 0.14 M NaCl
Procedure: as §1

[8] = tested on: Hemophilus influenzae Type 3A; assay: Antibacterial activity of rabbit granulocyte peptides (Table III), H. influenzae; format: cell-based; settings: 50 μg/ml, 20 min, 37° C., 10 mM sodium phosphate buffer pH 7.4
Procedure: as §1

L. monocytogenes = assay: Antibacterial action, % killing (Table II), L. monocytogenes; format: cell-based, Listeria monocytogenes; settings: 50 μg/ml peptide, 10^7 bacterial cells/ml, 20 min, 37°
Procedure: as §2

[9] = tested on: Staphylococcus epidermidis UCLA-622; assay: Antibacterial activity of rabbit granulocyte peptides (Table III), S. epidermidis; format: cell-based; settings: 50 μg/ml, 20 min, 37° C., 10 mM sodium phosphate buffer pH 7.4
Procedure: as §1

[10] = tested on: Staphylococcus aureus 566; assay: Antibacterial activity of rabbit granulocyte peptides (Table III), S. aureus 566; format: cell-based; settings: 50 μg/ml, 20 min, 37° C., 10 mM sodium phosphate buffer pH 7.4
Procedure: as §1

[11] = tested on: Pseudomonas aeruginosa PAO 579; assay: Antibacterial activity of rabbit granulocyte peptides (Table III), P. aeruginosa; format: cell-based; settings: 50 μg/ml, 20 min; for Bactericidal activity log10 No /N, Pseudomonas aeruginosa PAO 579, pH 5.8: 10 mM phosphate buffer pH 5.8; for Bactericidal activity log10 No /N, Pseudomonas aeruginosa PAO 579: 37° C., 10 mM sodium phosphate buffer pH 7.4; for Bactericidal activity log10 No /N, Pseudomonas aeruginosa PAO 579, "High" ionic strength: buffer pH 7.4 supplemented with 0.14 M NaCl
Procedure: as §1

S. albus = assay: Antibacterial action, % killing (Table II), S. albus; format: cell-based, Staphylococcus albus; settings: 50 μg/ml peptide, 10^7 bacterial cells/ml, 20 min, 37°
Procedure: as §2

[12] = tested on: Listeria monocytogenes 450; assay: Antibacterial activity of rabbit granulocyte peptides (Table III), L. monocytogenes; format: cell-based; settings: 50 μg/ml, 20 min; for Bactericidal activity log10 No /N, Listeria monocytogenes 450, pH 5.8: 10 mM phosphate buffer pH 5.8; for Bactericidal activity log10 No /N, Listeria monocytogenes 450: 37° C., 10 mM sodium phosphate buffer pH 7.4; for Bactericidal activity log10 No /N, Listeria monocytogenes 450, "High" ionic strength: buffer pH 7.4 supplemented with 0.14 M NaCl
Procedure: as §1

[13] = tested on: Staphylococcus aureus 502A; assay: Antibacterial activity of rabbit granulocyte peptides (Table III), S. aureus 502A; format: cell-based; settings: 50 μg/ml, 20 min, 37° C., 10 mM sodium phosphate buffer pH 7.4
Procedure: as §1

VSV = format: cell-based, Vesicular stomatitis virus; settings: 10 IU/ml, human GM 2504 fibroblast cell line
HSV-1 = assay: Virus yield reduction, HSV-1; format: cell-based, Herpes simplex, Type 1; settings: 100 IU/ml, human GM 2504 fibroblast cell line
H. influenzae = assay: Antibacterial action, % killing (Table II), H. influenzae; format: cell-based, Haemophilus influenzae; settings: 50 μg/ml peptide, 10^7 bacterial cells/ml, 20 min, 37°
Procedure: as §2

| Substance | Bactericidal activity log10 No /N, Serratia marcescens (Serratia marcescens) | Bactericidal activity log10 No /N, Escherichia coli ATCC 29648 [1] | Bactericidal activity log10 No /N, Staphylococcus aureus J.F. [2] | Bactericidal activity log10 No /N, Streptococcus agalactiae Type IIIU [3] | Bactericidal activity log10 No /N, Klebsiella pneumoniae ATCC 13883, pH 5.8 [4] | Bactericidal activity log10 No /N, Klebsiella pneumoniae ATCC 13883 [4] | Bactericidal activity log10 No /N, Klebsiella pneumoniae ATCC 13883, "High" ionic strength [4] | Bactericidal activity log10 No /N, Bordetella bronchiseptica UCLA-342 [5] | Bactericidal activity log10 No /N, Streptococcus pneumoniae Type III [6] | Bactericidal activity log10 No /N, Streptococcus agalactiae Type 1A, pH 5.8 [7] | Bactericidal activity log10 No /N, Streptococcus agalactiae Type-I-A [7] | Bactericidal activity log10 No /N, Streptococcus agalactiae Type 1A, "High" ionic strength [7] | Bactericidal activity log10 No /N, Hemophilus influenzae Type 3A [8] | Bactericidal activity log10 No /N, Staphylococcus epidermidis UCLA-622 [9] | Bactericidal activity log10 No /N, Staphylococcus aureus 566 [10] | Bactericidal activity log10 No /N, Pseudomonas aeruginosa PAO 579, pH 5.8 [11] | Bactericidal activity log10 No /N, Pseudomonas aeruginosa PAO 579 [11] | Bactericidal activity log10 No /N, Pseudomonas aeruginosa PAO 579, "High" ionic strength [11] | Bactericidal activity log10 No /N, Listeria monocytogenes 450, pH 5.8 [12] | Bactericidal activity log10 No /N, Listeria monocytogenes 450 [12] | also measured |
| --- | --- | --- | --- | --- | --- | --- | --- | --- | --- | --- | --- | --- | --- | --- | --- | --- | --- | --- | --- | --- | --- |
| gly arg cys val cys arg lys gln 21eu cys ser tyr arg glu arg arg ile gly asp cys lys ile arg gly val arg phe pro phe cys cys pro arg [NP-3b] | 0.7 log10 | 1.4 log10 | 0.8 log10 | 1.2 log10 | 0.2 log10 | 3.4 log10 | 0.0 log10 | 0.1 log10 | > 3.5 log10 | 0.2 log10 | 0.9 log10 | 0.0 log10 | 0.7 log10 | 1.7 log10 | 1.7 log10 | 0.0 log10 | 4.2 log10 | 0.0 log10 | 0.0 log10 | 4.3 log10 | % Killing, Ps. aeruginosa (Ps. aeruginosa): A (>99% killing); % Killing, S. aureus 502A (S. aureus 502A): D (<50% killing); % Killing, E. coli (E. coli): C (50-90% killing); % Killing, S. marscescens (S. marscescens): B (90-99% killing); % Killing, L. monocytogenes (L. monocytogenes): B (90-99% killing); % Killing, S. albus (S. albus): D (<50% killing); Bactericidal activity log10 No /N, Listeria monocytogenes 450, "High" ionic strength [12]: 0.0 log10; Bactericidal activity log10 No /N, Staphylococcus aureus 502A [13]: 0.3 log10 |
| val ser cys thr cys arg arg phe ser cys gly phe gly glu arg ala ser gly ser cys thr val asn gly val arg his thr leu cys cys arg arg [NP-4] | 1.3 log10 | 0.1 log10 | 0.1 log10 | 0.2 log10 | 0.3 log10 | 0.2 log10 | 0.0 log10 | 0.1 log10 | 4.3 log10 | 0.0 log10 | 0.1 log10 | 0.0 log10 | 1.3 log10 | 0.2 log10 | 0.2 log10 | 0.0 log10 | 0.2 log10 | 0.0 log10 | 0.0 log10 | 0.1 log10 | Bactericidal activity log10 No /N, Listeria monocytogenes 450, "High" ionic strength [12]: 0.0 log10; Bactericidal activity log10 No /N, Staphylococcus aureus 502A [13]: 0.1 log10 |
| val phe cys thr cys arg gly phe leu cys gly ser gly glu arg ala ser gly ser cys thr ile asn gly val arg his thr leu cys cys arg [NP-5] | 1.2 log10 | 0.2 log10 | 0.1 log10 | 0.4 log10 | 0.1 log10 | 1.2 log10 | 0.0 log10 | 0.0 log10 | 1.9 log10 | 0.0 log10 | 0.5 log10 | 0.0 log10 | 1.2 log10 | 0.4 log10 | 0.4 log10 | 0.1 log10 | 0.7 log10 | 0.0 log10 | 0.1 log10 | 0.5 log10 | Bactericidal activity log10 No /N, Listeria monocytogenes 450, "High" ionic strength [12]: 0.2 log10; Bactericidal activity log10 No /N, Staphylococcus aureus 502A [13]: 0.2 log10 |
| IFN-α [reference compound] | – | – | – | – | – | – | – | – | – | – | – | – | – | – | – | – | – | – | – | – | decrease in VSV yield (VSV): 6 log10; decrease in HSV-1 yield (HSV-1): 0.6 log10 |
| val val cys ala cys arg arg ala leu cys leu pro arg glu arg arg ala gly phe cys arg ile arg gly arg ile his pro leu cys cys arg arg [NP-1] | 1.0 log10 | 1.9 log10 | 2.7 log10 | 3.9 log10 | 0.6 log10 | 3.0 log10 | 0.1 log10 | 0.1 log10 | 3.8 log10 | 0.1 log10 | 2.3 log10 | 0.0 log10 | > 1.1 log10 | > 4.1 log10 | > 4.1 log10 | 0.3 log10 | > 4.2 log10 | 0.1 log10 | 0.2 log10 | 2.1 log10 | % Killing, Ps. aeruginosa (Ps. aeruginosa): A (>99% killing); % Killing, S. aureus 502A (S. aureus 502A): D (<50% killing); % Killing, E. coli (E. coli): B (90-99% killing); % Killing, H. influenzae (H. influenzae): A (>99% killing); % Killing, L. monocytogenes (L. monocytogenes): A (>99% killing); % Killing, S. albus (S. albus): B (90-99% killing); Bactericidal activity log10 No /N, Listeria monocytogenes 450, "High" ionic strength [12]: 0.1 log10; Bactericidal activity log10 No /N, Staphylococcus aureus 502A [13]: 2.3 log10 |
